Source: ChEMBL document CHEMBL4152226, “Novel Mannich bases of α- and γ-mangostins: Synthesis and evaluation of antioxidant and membrane-protective activity” (Eur J Med Chem, 2018)
Calls of active or inactive are those of the source. No cut-off for these calls is given here.

Assays:
[1] = Hemolytic activity against mouse RBC assessed as hemolysis measured after 5 hrs by malondialdehyde indicator based assay relative to control; format: ADME, cell-based, Erythrocyte; details: mouse red blood cells (erythrocytes), read-out: Activity
[2] = Antioxidant activity assessed as DPPH radical scavenging activity at 100 uM incubated in dark for 30 mins relative to control; format: functional
[3] = Metal chelating activity assessed as compound-Fe2+ complex formation at 10 uM after 10 mins by FerrozineTM iron reagent based assay
Erythrocyte [4] = assay: Protection against H2O2-induced oxidative stress in mouse RBC assessed as inhibition of hemolysis at 1 uM pretreated for 30 mins followed by H2O2 addition and measured after 5 hrs by malondialdehyde indicator based assay relative to control; format: functional
[5] = Antioxidant activity assessed as DPPH radical scavenging activity at 10 to 100 uM incubated in dark for 30 mins; format: functional
Erythrocyte [6] = assay: Antioxidant activity against H2O2-induced oxidative stress in mouse RBC assessed as inhibition of LPO accumulation at 10 uM pretreated for 30 mins followed by H2O2 addition and measured after 4 hrs by TBARS assay relative to control; format: functional
Erythrocyte [7] = assay: Protection against H2O2-induced oxidative stress in mouse RBC assessed as inhibition of hemolysis at 0.05 uM pretreated for 30 mins followed by H2O2 addition and measured after 5 hrs by malondialdehyde indicator based assay relative to control; format: functional
Erythrocyte [8] = assay: Hemolytic activity against mouse RBC at 30 uM measured after 5 hrs by malondialdehyde indicator based assay; format: ADME, cell-based
Erythrocyte [9] = assay: Antioxidant activity against H2O2-induced oxidative stress in mouse RBC assessed as inhibition of LPO accumulation at 0.05 uM pretreated for 30 mins followed by H2O2 addition and measured after 4 hrs by TBARS assay relative to control; format: functional
Erythrocyte [10] = assay: Antioxidant activity against H2O2-induced oxidative stress in mouse RBC assessed as inhibition of LPO accumulation at 1 uM pretreated for 30 mins followed by H2O2 addition and measured after 4 hrs by TBARS assay relative to control; format: functional
Erythrocyte [11] = assay: Protection against H2O2-induced oxidative stress in mouse RBC assessed as inhibition of hemolysis at 10 uM pretreated for 30 mins followed by H2O2 addition and measured after 5 hrs by malondialdehyde indicator based assay relative to control; format: functional

Row | SMILES | hemolysis at 5 h [1] [%] | Activity [2] [%] | Activity [3] | inhibition at 1 µM (Erythrocyte [4]) [%] | Activity [5] | inhibition at 10 µM (Erythrocyte [6]) [%] | inhibition at 0.05 µM (Erythrocyte [7]) [%] | Activity (Erythrocyte [8]) | inhibition at 0.05 µM (Erythrocyte [9]) [%] | inhibition at 1 µM (Erythrocyte [10]) [%] | inhibition at 10 µM (Erythrocyte [11]) [%]
1 | COc1c(O)cc2oc3c(CN(C)C)c(O)c(CC=C(C)C)c(O)c3c(=O)c2c1CC=C(C)C | 63.1 | 13.1 to 16 | – | – | – | – | – | – | – | – | –
2 | CC(C)=CCc1c(O)c(CN2CCOCC2)c2oc3c(CN4CCOCC4)c(O)c(O)c(CC=C(C)C)c3c(=O)c2c1O | – | – | Active | 6.9 | Active | 68.8 | 79.6 | Non-Toxic | 78.5 | – | –
3 | COc1c(O)c(CN2CCOCC2)c2oc3c(CN4CCOCC4)c(O)c(CC=C(C)C)c(O)c3c(=O)c2c1CC=C(C)C | – | – | – | 75.6 | Active | 57.4 | – | Non-Toxic | – | 76.1 | 22
4 | COc1c(O)cc2oc3c(CN4CCCC4)c(O)c(CC=C(C)C)c(O)c3c(=O)c2c1CC=C(C)C | – | – | Active | 29.2 | Active | 68.2 | – | Non-Toxic | – | 56.4 | 17.5
5 | CCCCNCc1c(O)c(CC=C(C)C)c(O)c2c(=O)c3c(CC=C(C)C)c(OC)c(O)c(CN(C)C)c3oc12 | – | – | – | 36.8 | Active | 61.5 | – | Non-Toxic | – | 53.5 | 50
6 | COc1c(O)cc2oc3c(CN4CCCCCC4)c(O)c(CC=C(C)C)c(O)c3c(=O)c2c1CC=C(C)C | – | – | Active | 27.6 | Active | 48.9 | – | Non-Toxic | – | 51.2 | 10.8
7 | COc1c(O)cc2oc3cc(O)c(CC=C(C)C)c(O)c3c(=O)c2c1CC=C(C)C [MANGOSTIN] | – | – | – | 60.2 to 60.9 | Active | 59.8 to 67 | – | Non-Toxic | – | 54.2 to 66.9 | 44.4 to 46.3
8 | COc1c(O)c(CN(C)C)c2oc3c(CN(C)C)c(O)c(CC=C(C)C)c(O)c3c(=O)c2c1CC=C(C)C | – | – | – | 41 | Active | 58.2 | – | Toxic | – | 56.1 | 66.3
9 | CC(C)=CCc1c(O)c(CN2CCCCCC2)c2oc3c(CN4CCCCCC4)c(O)c(O)c(CC=C(C)C)c3c(=O)c2c1O | – | – | Active | 9 | Active | 71.5 | 74.3 | Non-Toxic | 69 | – | –
10 | COc1c(O)cc2oc3c(CN4CCOCC4)c(O)c(CC=C(C)C)c(O)c3c(=O)c2c1CC=C(C)C | – | 13.1 to 16 | – | – | – | – | – | – | – | – | –
11 | CCCCNCc1c(O)c(CC=C(C)C)c(O)c2c(=O)c3c(CC=C(C)C)c(OC)c(O)cc3oc12 | – | – | – | 46.4 | Active | 70.5 | – | Non-Toxic | – | 60.5 | 31.9
12 | COc1c(O)cc2oc3c(CN4CCCCC4)c(O)c(CC=C(C)C)c(O)c3c(=O)c2c1CC=C(C)C | – | 13.1 to 16 | – | – | – | – | – | – | – | – | –
13 | CC(C)=CCc1c(O)cc2oc3cc(O)c(O)c(CC=C(C)C)c3c(=O)c2c1O | – | – | – | 15.1 | Active | 68.1 | 85.9 | Non-Toxic | 72.8 | – | –
14 | CC(C)=CCc1c(O)c(CN(C)C)c2oc3c(CN(C)C)c(O)c(O)c(CC=C(C)C)c3c(=O)c2c1O | – | – | Active | 15.3 | Active | 75.7 | 78 | Non-Toxic | 67.7 | – | –
15 | COc1c(O)c(CN2CCCCCC2)c2oc3c(CN4CCOCC4)c(O)c(CC=C(C)C)c(O)c3c(=O)c2c1CC=C(C)C | – | – | – | 37.5 | Active | 33.6 | – | Non-Toxic | – | 56.1 | 17.7
16 | COc1c(O)c(CN2CCCCCC2)c2oc3c(CN4CCCCCC4)c(O)c(CC=C(C)C)c(O)c3c(=O)c2c1CC=C(C)C | – | – | – | 35 | Active | 54.1 | – | Non-Toxic | – | 34.8 | 19
